Experimental data published in US10363227B2, “Pharmaceutical formulation for use in the treatment and/or prevention of restenosis” (Centre Hospitalier Universitaire Vaudois (C.H.U.V.), priority 2013, dated 2019).

Columns and labels:
[1] = test system: human vascular smooth muscle cells (hVSMC); experiment: hVSMC viability, MTT test; type: cell-based
Primary hVSMCs = experiment: hVSMC migration, silicon culture inserts with cell free gap; type: cell-based, human
Protocol: (§1) To that end, experiments on the influence of the drug on migration and transmigration of the hVSMC and the expression of different mRNAs of proteins involved in the cellular invasivity were performed.

hVSMCs = experiment: mRNA levels in hVSMCs (PAI-1, MMP2, Cx43, tPA, HMOX); type: cell-based, human; details: ATV directly added in the medium, 24 hours incubation
Protocol: FIG. 6: Analysis of transcripts and proteins of hVSMC. Measurements of various mRNAs levels in hVSMCs in presence of ATV directly added in the medium were performed. PAI-1 and MMP2 and Cx43 mRNA levels were decreased whereas tPA and HMOX transcripts were increased after 24 hours incubation.
as §1

## CC(C)c1c(C(=O)Nc2ccccc2)c(-c2ccccc2)c(-c2ccc(F)cc2)n1CC[C@@H](O)C[C@@H](O)CC(=O)O [ATV, Atorvastatin]
[1]; 5 μM ATV
  time of viability reduction: 72 h
[1]; 10 μM ATV
  time of viability reduction: 24 h
[1]; 5-10 μM ATV, P<0.05 versus cells without ATV
  viability of hVSMCs (MTT test): significantly reduced
[1]; primary culture at passage 2-5
  proliferation of human SMC: decreased
Primary hVSMCs; 5 μM ATV directly added to the culture medium
  time at which inhibition of cell migration was observed: 36 h
Primary hVSMCs; 10 μM ATV directly added to the culture medium
  time at which inhibition of cell migration was observed: 24 h
Primary hVSMCs; 5 and 10 μM ATV
  hVSMC migration into cell free gap: decreased
hVSMCs
  Cx43 mRNA level: decreased
  HMOX transcript level: increased
  MMP2 mRNA level: decreased
  PAI-1 mRNA level: decreased
  tPA transcript level: increased
